According to US8664379B2, “Fused heterocyclic compounds as ion channel modulators” (Gilead Sciences, Inc., priority 2008, dated 2014):

Assays:
hERG potassium channel = molecular target: T1, hERG potassium channel (Homo sapiens, UniProt Q12809); assay: hERG screening assay (PatchXpress patch clamp); format: cell-based; conditions: hERG expressed in CHO cells, peak current at -50 mV; for hERG Patch Clamp hERG % blk 1 μm: 1 μM test compound; for hERG Patch Clamp hERG % blk 10 μm: 10 μM test compound
T1 construct: expressed in transfected cells
Experimental: Compounds were screened to test their activity in blocking the hERG potassium channel. The hERG channel was heterologously expressed in a CHO (Chinese Hamster Ovary) cell line. Cells were maintained with standard tissue culture procedures and stable channel expression was maintained with 500 μg/ml G418 in the culture medium. Cells were harvested for testing on the PatchXpress automated patch clamp with Accumax (Innovative Cell Technologies, San Diego, Calif.) to isolate single cells.
The following solutions were used for electrophysiological recordings. The external solution contained: 2 mM CaCl2; 2 mM MgCl2; 4 mM KCl; 150 mM NaCl; 10 mM Glucose; 10 mM HEPES (pH 7.4 with 1M NaOH, osmolarity). The internal solution contained: 140 mM KCl, 10 mM MgCl2, 6 mM EGTA, 5 mM HEPES, 5 mM ATP (pH adjusted to 7.25 with KOH).
hERG channels are activated when the voltage is stepped to +20 mV from the −80 mV holding potential. During a 5 second step at +20 mV, the channels activated and then largely inactivated, so the currents were relatively small. Upon returning to −50 mV from +20 mV, hERG currents transiently became much larger as inactivation was rapidly removed and then the channel closed. The first step to −50 mV for 300 ms was used as a baseline for measuring the peak amplitude during the step to −50 mV after channel activation. The peak current at −50 mV was measured both under control conditions and after addition of compound.
All compounds were prepared as 10 mM DMSO stocks in glass vials. Stock solutions were mixed by vigorous vortexing and sonication for about 2 minutes at room temperature. For testing, compounds were diluted in glass vials using an intermediate dilution step in pure DMSO and then further diluted to working concentrations in external solution. Dilutions were prepared no longer than 20 minutes before use.
After achieving the whole-cell configuration, cells were monitored for 90 seconds to assess stability and washed with external solution for 66 seconds. The voltage protocol described above was then applied to the cells every 12 seconds and throughout the whole procedure. Only cells with stable recording parameters and meeting specified health criteria were allowed to enter the compound addition procedure.
External solution containing 0.1% DMSO (vehicle) was applied to the cells first to establish the control peak current amplitude. After allowing the current to stabilize for 3 to 5 minutes, 1 μM and then 10 μM test compounds were applied. Each compound concentration was added 4 times and cells were kept in test solution until the effect of the compound reached steady state or for a maximum of 12 minutes. After addition of test compound, a positive control (1 μM Cisapride) was added—it must block >95% of the current for the experiment to be considered valid. Washout in the external solution compartment was performed until the recovery of the current reached steady state. Data were analyzed using DataXpress, Clampfit (Molecular Devices, Inc., Sunnyvale) and Origin 7 (Originlab Corp.)

[1] = molecular target: wild-type human cardiac sodium channel, hNav1.5 (late sodium current) (Homo sapiens, UniProt Q14524); assay: Late INa screening assay (PatchXpress whole cell patch clamp); format: cell-based; conditions: HEK293 cells expressing hNav1.5, late INa generated with 10 μM Tefluthrin (some experiments 50 nM ATX II); for inhibition at 10 µM: HEK293, 10 μM test compound, read-out: Late INa % blk (10 μM test cmpd); for Late INa % blk (1 μM test cmpd): 1 μM test compound
Experimental: The late sodium current (Late INa) and peak sodium current (Peak INa) assays were performed on an automated electrophysiology platform, PatchXpress 7000A (MDS Analytical Technologies, Sunnyvale, Calif.), which uses the whole cell patch clamp technique to measure currents through the cell membrane of up to 16 cells at a time. The assay used an HEK293 (human embryonic kidney) cell line heterologously expressing the wild-type human cardiac sodium channel, hNav1.5, purchased from Millipore (Billerica, Mass.). No beta subunits were coexpressed with the Na channel alpha subunit. Cells were maintained with standard tissue culture procedures and stable channel expression was maintained with 400 μg/ml Geneticin in the culture medium. Cells isolated for use on PatchXpress were incubated for 5 minutes in Versene 1× and then for 2 minutes in 0.0125% Trypsin-EDTA (both at 37° C.) to ensure that 80-90% of the cells are single and not part of a cell cluster. Experiments were carried out at 24-27° C.
For both the Late INa and Peak INa assays, series resistance compensation was set to 50% and whole-cell compensation was performed automatically. Currents were low-pass filtered at 10 kHz and digitized at 31.25 kHz. Currents through open sodium channels were automatically recorded and stored in the DataXpress2 database (MDS Analytical Technologies, Sunnyvale, Calif.). Analysis was performed using DataXpress2 analysis software and data are compiled in Excel.
Compound stocks were routinely made in glass vials to 10 mM in dimethyl sulfoxide (DMSO). In some cases, when compounds were not soluble in DMSO, they were made in 100% ethanol. Stocks were sonicated as necessary. The extracellular solution for screening Late INa was composed of: 140 mM NaCl, 4 mM KCl, 1.8 mM CaCl2, 0.75 mM MgCl2, and 5 mM HEPES with pH adjusted to 7.4 using NaOH. The extracellular solution for screening Peak INa was composed of: 20 mM NaCl, 120 mM N-methyl-D glucamine, 4 mM KCl, 1.8 mM CaCl2, 0.75 mM MgCl2, and 5 mM HEPES with pH adjusted to 7.4 using HCl. The intracellular solution used to perfuse the inside of the cells for both the Late INa and Peak INa assays contains: 120 mM CsF, 20 mM CsCl, 5 mM EGTA, 5 mM HEPES and pH adjusted to 7.4 with CsOH. Compounds were diluted in extracellular solution to 10 μM in glass vials and then transferred to glass well plates before robotic addition to the cells. The 0Na extracellular solution used at the end of each experiment for the Late INa and Peak INa assays to measure baseline current contained: 140 mM N-methyl-D-glucamine; 4 mM KCl; 1.8 mM CaCl2; 0.75 mM MgCl2; 5 mM HEPES and pH was adjusted to 7.4 with HCl.
For the Late INa assay, sodium channels were activated every 10 seconds (0.1 Hz) by depolarizing the cell membrane to −20 mV for 250 milliseconds (ms) from a holding potential of −120 mV. In response to a −20 mV voltage step, typical Nav1.5 sodium currents activated rapidly to a peak negative current and then inactivated nearly completely within 3-4 ms.
All compounds were tested to determine their activity in blocking the late sodium current. Late INa current is generated by adding 10 μM Tefluthrin (pyrethroid) to the extracellular solution while recording Na currents. For some experiments, 50 nM ATX II (sea anemone toxin), another late INa activator, was used to generate the late component. Both activators generate late components that are large enough that block of the late component by compounds can be measured easily. For the purposes of the screening, late INa is defined as the mean current between 225 ms and 250 ms after stepping to −20 mV to activate Na channels. After establishing the whole cell recording configuration, late INa activators were added to each well 4 times over a 16-17 minute period so that the late component of the Na current reached a stable value. Compounds were then added (typically at 10 μM), in the presence of late INa activator, with 3 additions over the course of 7 or 8 minutes. […]

Sequence of wild-type human cardiac sodium channel, hNav1.5 (late sodium current) (Q14524 whole entry): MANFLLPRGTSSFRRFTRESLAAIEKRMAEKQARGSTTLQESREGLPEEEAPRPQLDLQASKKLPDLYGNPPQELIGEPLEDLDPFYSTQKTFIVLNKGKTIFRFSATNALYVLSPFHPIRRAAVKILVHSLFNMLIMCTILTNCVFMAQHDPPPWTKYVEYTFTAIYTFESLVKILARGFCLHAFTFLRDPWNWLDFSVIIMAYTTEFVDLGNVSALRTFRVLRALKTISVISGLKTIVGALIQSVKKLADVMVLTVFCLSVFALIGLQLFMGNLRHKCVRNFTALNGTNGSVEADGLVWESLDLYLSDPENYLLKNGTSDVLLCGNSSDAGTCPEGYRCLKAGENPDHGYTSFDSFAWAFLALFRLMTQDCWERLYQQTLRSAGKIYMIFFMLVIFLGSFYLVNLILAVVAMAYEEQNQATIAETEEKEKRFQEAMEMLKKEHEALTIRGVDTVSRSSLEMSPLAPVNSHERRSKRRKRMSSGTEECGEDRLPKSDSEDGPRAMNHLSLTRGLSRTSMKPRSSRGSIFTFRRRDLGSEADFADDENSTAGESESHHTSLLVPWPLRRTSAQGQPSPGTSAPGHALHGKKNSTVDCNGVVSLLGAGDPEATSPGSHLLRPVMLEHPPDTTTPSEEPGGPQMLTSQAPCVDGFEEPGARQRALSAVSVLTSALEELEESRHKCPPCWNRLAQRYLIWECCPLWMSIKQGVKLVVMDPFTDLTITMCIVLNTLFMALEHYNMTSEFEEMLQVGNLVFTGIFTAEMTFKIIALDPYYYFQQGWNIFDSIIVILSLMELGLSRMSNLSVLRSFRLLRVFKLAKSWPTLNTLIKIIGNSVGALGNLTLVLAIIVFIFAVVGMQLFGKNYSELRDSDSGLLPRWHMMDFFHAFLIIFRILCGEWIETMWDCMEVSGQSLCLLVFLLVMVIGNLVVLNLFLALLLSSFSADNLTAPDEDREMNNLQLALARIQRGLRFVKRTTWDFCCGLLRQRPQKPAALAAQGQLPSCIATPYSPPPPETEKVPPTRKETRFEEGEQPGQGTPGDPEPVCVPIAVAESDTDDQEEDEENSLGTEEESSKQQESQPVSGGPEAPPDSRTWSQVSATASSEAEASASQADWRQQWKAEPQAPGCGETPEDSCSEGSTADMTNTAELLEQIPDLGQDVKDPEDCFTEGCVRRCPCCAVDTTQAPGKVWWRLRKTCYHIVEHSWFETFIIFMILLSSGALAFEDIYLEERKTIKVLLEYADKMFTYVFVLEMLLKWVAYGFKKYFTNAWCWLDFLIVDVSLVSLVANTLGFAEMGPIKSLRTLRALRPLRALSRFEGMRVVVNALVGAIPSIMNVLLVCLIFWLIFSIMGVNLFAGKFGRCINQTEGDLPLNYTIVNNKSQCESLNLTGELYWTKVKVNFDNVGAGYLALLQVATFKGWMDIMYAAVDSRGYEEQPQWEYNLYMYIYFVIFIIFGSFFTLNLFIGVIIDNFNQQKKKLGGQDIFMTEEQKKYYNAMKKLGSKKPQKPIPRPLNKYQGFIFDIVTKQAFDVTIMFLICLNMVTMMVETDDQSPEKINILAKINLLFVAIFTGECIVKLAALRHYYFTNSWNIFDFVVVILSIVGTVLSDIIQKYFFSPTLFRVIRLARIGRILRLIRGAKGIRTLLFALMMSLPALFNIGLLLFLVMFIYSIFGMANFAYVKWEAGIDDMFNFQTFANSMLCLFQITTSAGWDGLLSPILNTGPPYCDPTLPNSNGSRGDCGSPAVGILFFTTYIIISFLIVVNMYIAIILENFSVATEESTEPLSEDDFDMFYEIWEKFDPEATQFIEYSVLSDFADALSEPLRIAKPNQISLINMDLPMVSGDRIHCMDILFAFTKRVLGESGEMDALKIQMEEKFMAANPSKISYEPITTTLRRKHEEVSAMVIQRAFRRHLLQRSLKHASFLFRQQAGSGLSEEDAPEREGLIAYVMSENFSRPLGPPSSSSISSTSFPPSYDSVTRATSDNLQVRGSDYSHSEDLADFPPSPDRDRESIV
T1 sequence (Q12809 whole entry): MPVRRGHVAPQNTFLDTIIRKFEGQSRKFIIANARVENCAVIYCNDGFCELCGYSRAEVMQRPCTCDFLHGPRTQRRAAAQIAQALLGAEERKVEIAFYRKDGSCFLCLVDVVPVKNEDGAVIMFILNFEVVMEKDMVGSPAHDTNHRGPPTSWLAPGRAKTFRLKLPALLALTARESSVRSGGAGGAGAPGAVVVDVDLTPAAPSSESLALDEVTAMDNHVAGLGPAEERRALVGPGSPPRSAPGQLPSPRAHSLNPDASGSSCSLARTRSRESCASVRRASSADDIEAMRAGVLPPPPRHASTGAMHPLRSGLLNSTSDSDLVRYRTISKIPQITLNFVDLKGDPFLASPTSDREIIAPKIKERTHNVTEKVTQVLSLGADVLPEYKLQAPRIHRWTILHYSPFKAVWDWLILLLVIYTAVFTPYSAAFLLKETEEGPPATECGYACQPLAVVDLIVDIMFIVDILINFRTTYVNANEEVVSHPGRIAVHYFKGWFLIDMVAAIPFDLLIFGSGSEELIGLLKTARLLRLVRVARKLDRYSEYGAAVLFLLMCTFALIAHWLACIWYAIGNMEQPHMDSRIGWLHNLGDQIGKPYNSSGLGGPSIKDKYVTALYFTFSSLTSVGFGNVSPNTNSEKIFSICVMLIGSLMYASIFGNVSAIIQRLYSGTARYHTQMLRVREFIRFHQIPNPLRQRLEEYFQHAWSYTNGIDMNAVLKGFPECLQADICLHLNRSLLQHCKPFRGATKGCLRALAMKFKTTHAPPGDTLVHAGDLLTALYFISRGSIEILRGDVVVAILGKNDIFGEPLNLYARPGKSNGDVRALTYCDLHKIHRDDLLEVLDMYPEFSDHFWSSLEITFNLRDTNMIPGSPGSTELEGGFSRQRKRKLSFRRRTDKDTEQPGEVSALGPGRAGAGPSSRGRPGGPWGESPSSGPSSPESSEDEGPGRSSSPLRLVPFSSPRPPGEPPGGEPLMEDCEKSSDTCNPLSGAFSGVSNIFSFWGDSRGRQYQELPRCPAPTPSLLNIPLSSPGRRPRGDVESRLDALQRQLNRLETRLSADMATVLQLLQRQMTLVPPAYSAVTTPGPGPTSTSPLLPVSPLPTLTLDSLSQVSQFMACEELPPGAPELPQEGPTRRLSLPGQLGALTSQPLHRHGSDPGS

Row | Structure (SMILES) | inhibition at 10 µM [1] [%] | other results
1 | COCCN1C(=O)CCc2cc(-c3ccc(C(F)(F)F)cc3)ccc21 [Compound 49, 1-(2-methoxyethyl)-6-[4-(trifluoromethyl)phenyl]-3,4-dihydroquinolin-2(1H)-one] | 60 | hERG Patch Clamp hERG % blk 1 μm (hERG potassium channel): 10%; hERG Patch Clamp hERG % blk 10 μm (hERG potassium channel): 42%
2 | O=C(O)CN1C(=O)CCc2cc(-c3ccc(C(F)(F)F)cc3)ccc21 [Compound 44, {2-oxo-6-[4-(trifluoromethyl)phenyl]-3,4-dihydroquinolin-1(2H)-yl}acetic acid] | – | hERG Patch Clamp hERG % blk 1 μm (hERG potassium channel): 10%; hERG Patch Clamp hERG % blk 10 μm (hERG potassium channel): 10%
3 | O=C1CCc2cc(-c3ccc(Cl)c(C(F)(F)F)c3)ccc2N1 [Compound 10, 6-[4-chloro-3-(trifluoromethyl)phenyl]-3,4-dihydroquinolin-2(1H)-one] | 66 | Late INa % blk (1 μM test cmpd) [1]: 40%
4 | COc1c(-c2ccc(Cl)cc2)cc2c(c1-c1ccc(Cl)cc1)N(CC(=O)O)C(=O)CC2 [Compound 81, 2-(6,8-bis(4-chlorophenyl)-7-methoxy-2-oxo-3,4-dihydroquinolin-1(2H)-yl)acetic acid] | 30 | –
5 | COC(=O)c1ccc(CN2C(=O)CCc3cc(-c4ccc(C(F)(F)F)cc4)ccc32)cc1 [Compound 87, methyl 4-((2-oxo-6-(4-(trifluoromethyl)phenyl)-3,4-dihydroquinolin-1(2H)-yl)methyl)benzoate] | 20 | –
6 | O=C(O)CN1C(=O)CCc2cc(-c3ccc(OC(F)(F)F)cc3)ccc21 [Compound 51, {2-oxo-6-[4-(trifluoromethoxy)phenyl]-3,4-dihydroquinolin-1(2H)-yl}acetic acid] | 14 | –
7 | O=C(O)CN1C(=O)CCc2cc(-c3cccc(F)c3)ccc21 [Compound 59, [6-(3-fluorophenyl)-2-oxo-3,4-dihydroquinolin-1(2H)-yl]acetic acid] | 10 | –
8 | CC(=O)c1cccc(-c2ccc3c(c2)CCC(=O)N3)c1 [Compound 8, 6-(3-acetylphenyl)-3,4-dihydroquinolin-2(1H)-one] | 22 | –
9 | NC(=O)CN1C(=O)CCc2cc(-c3ccc(C(F)(F)F)cc3)ccc21 [Compound 56, 2-{2-oxo-6-[4-(trifluoromethyl)phenyl]-3,4-dihydroquinolin-1(2H)-yl}acetamide] | 14 | –
10 | CC(C)(C)OC(=O)CN1C(=O)CCc2cc(-c3ccc(Cl)c(C(F)(F)F)c3)ccc21 [Compound 67, tert-butyl {6-[4-chloro-3-(trifluoromethyl)phenyl]-2-oxo-3,4-dihydroquinolin-1(2H)-yl}acetate] | 74 | –
11 | O=C1CCc2cc(-c3ccc(F)cc3F)ccc2N1 [Compound 11, 6-(2,4-difluorophenyl)-3,4-dihydroquinolin-2(1H)-one] | 54 | –
12 | N#Cc1ccc(-c2ccc3c(c2)CCC(=O)N3)cc1 [Compound 5, 4-(2-oxo-1,2,3,4-tetrahydroquinolin-6-yl)benzonitrile] | 30 | –
13 | O=C1CCc2cc(-c3ccc(F)cc3F)ccc2N1CCO [Compound 16, 6-(2,4-difluorophenyl)-1-(2-hydroxyethyl)-3,4-dihydroquinolin-2(1H)-one] | 24 | –
14 | CC(C)(C)OC(=O)CN1C(=O)CCc2cc(-c3ccc(OC(F)(F)F)cc3)ccc21 [Compound 50, tert-butyl {2-oxo-6-[4-(trifluoromethoxy)phenyl]-3,4-dihydroquinolin-1(2H)-yl}acetate] | 76 | –
15 | O=C1CCc2cc(-c3ccc(C(F)(F)F)cc3)ccc2N1 [Compound 9, 6-[4-(trifluoromethyl)phenyl]-3,4-dihydroquinolin-2(1H)-one] | 62 | –
16 | COc1cc2c(cc1-c1ccc(C(F)(F)F)cc1)CCC(=O)N2CC(=O)O [Compound 79, 2-(7-methoxy-2-oxo-6-(4-(trifluoromethyl)phenyl)-3,4-dihydroquinolin-1(2H)-yl)acetic acid] | 12 | –
17 | CC(C)(C)OC(=O)CN1C(=O)CCc2cc(-c3cccc(Cl)c3)ccc21 [Compound 53, tert-butyl [6-(3-chlorophenyl)-2-oxo-3,4-dihydroquinolin-1(2H)-yl]acetate] | 73 | –
18 | CC1(C)CC(=O)Nc2ccc(-c3ccc(C(F)(F)F)cc3)cc21 [Compound 42, 4,4-dimethyl-6-[4-(trifluoromethyl)phenyl]-3,4-dihydroquinolin-2(1H)-one] | 19 | –
19 | CCOC(=O)CN1C(=O)CCc2cc(-c3cccc(OC(F)(F)F)c3)ccc21 [Compound 24, ethyl {2-oxo-6-[3-(trifluoromethoxy)phenyl]-3,4-dihydroquinolin-1(2H)-yl}acetate] | 74 | Late INa % blk (1 μM test cmpd) [1]: 44%
20 | CC(C)(C)c1nc(CN2C(=O)CCc3cc(-c4ccc(F)cc4)ccc32)no1 [Compound 35, 1-[(5-tert-butyl-1,2,4-oxadiazol-3-yl)methyl]-6-(4-fluorophenyl)-3,4-dihydroquinolin-2(1H)-one] | 69 | –
21 | NC(=O)c1ccc(-c2ccc3c(c2)CCC(=O)N3)cc1 [Compound 2, 4-(2-oxo-1,2,3,4-tetrahydroquinolin-6-yl)benzamide] | 16 | –
